Data on two compounds can be found in article PMC8710297, “Identification of potent SENP1 inhibitors that inactivate SENP1/JAK2/STAT signaling pathway and overcome platinum drug resistance in ovarian cancer” (Clinical and Translational Medicine, 2021).

The assay concerns IGROV1 CR xenograft. In words: IGROV1 CR xenograft tumor growth. The conditions noted are these: nude mice, i.p., cisplatin 8 mg/kg/2 days + UA 10 mg/kg/2 days or UAMMC9 2 mg/kg/2 days, compared to single agents. Type of assay: in vivo. The protocol: Importantly, the treatments had minor toxicity (Figures S3B–D).
Cell viability was measured by SRB assay. […] Data were represented as mean ± SD (n = 3). (B) Colony formation assay in cells treated as indicated. […] (D) Growth curves of xenograft tumors are shown in (C). Data are represented as means ± SEM, n = 6 mice/group. **p < 0.01. […] (F) IGROV1 CR xenograft tumor growth curve by indicated treatments. Data are represented as means ± SD, n = 6 tumors/group. **p < 0.01. (G) Immunohistochemistry (IHC) staining against pSTAT3 antibodies of tumor samples from four groups of mice (magnification, 200x) (Upper). […]
ac etoni tri le (solvent A) and 0.02% phosphoric ac id in 10% acetonitrile in wate r (solvent B) at a constant solvent flow rate of 1.0 mL/min.
9. Molecular docking and dynamics simulation
Docking and scoring were performed by using Schrödinger software pa c ka ge. Lig Prep wa s incorp orated to refin e UA (ligand). Ionization state s within pH=7.0±2.0 were selected fo r docking. SENP1 crystal structu re was downloaded from protein datab ank (PDB ID: 2IY0, http :// ww w.rcsb.org /). […] The protein wa s added hyd ro g e n atom s and charges, removed wate rs by Protein Preparation Wi zard module. […] The extended sampling method wa s selected fo r confor mationa l search, and the resi du es in the ra n ge of ligand 5 Å we re further optimized. […]
6 tumors per group were assessed. […]

Consider `C[C@H]1[C@H](C)CC[C@]2(C(=O)O)CC[C@]3(C)C(=CC[C@@H]4[C@@]5(C)CC[C@H](O)C(C)(C)[C@@H]5CC[C@]43C)[C@H]12` [UA, ursolic acid, reference compound], for which the “reduction of tumor growth in combination with cisplatin” value is on record as “remarkable synergy”.

On to `C[C@H]1[C@H](C)CC[C@]2(C(=O)NCC(=O)N(C)CCO)CC[C@]3(C)C(=CC[C@@H]4[C@@]5(C)CC[C@H](O)C(C)(C)[C@@H]5CC[C@]43C)[C@H]12` [UAMMC9], for which the “reduction of tumor growth in combination with cisplatin” value is “remarkable synergy”.
